# Assay results from patent US20250151722A1 (priority 2022, published 2025).
# Values joined by “and” are separate entries in the source; they are usually repeats but may differ in a detail not shown here. Equal entries are not always repeated. “Also recorded” adds a separate entry of the source. Where two headings read alike, the source gives them in different places.
# How the values were obtained:
# [1] = test system: A. flavus MAFF111229 strain
# [2] = test system: A. flavus IFM47798 strain; assay: Fungal growth (dry fungal weight) in liquid culture, Test Example 1; type: cell-based, Aspergillus flavus
# [3] = test system: A. flavus MAFF111229 strain; type: cell-based, Aspergillus flavus
# [4] = test system: A. parasiticus NRRL2999 strain
# [5] = test system: A. parasiticus NRRL2999 strain; type: cell-based, Aspergillus parasiticus
# [6] = test system: A. flavus IFM47798 strain; type: cell-based, Aspergillus flavus; settings: for Total AF Relative Value (%): 48 h, 28° C., untreated control = 100, mean ± SD, n = 4
# [7] = test system: A. flavus MAFF111229 strain; type: cell-based, Aspergillus flavus; settings: untreated control = 100, mean ± SD, n = 4
# [8] = alcohol 0.3 v/v %, 48 h, 28° C., untreated control = 100, mean ± SD, n = 4
# [9] = alcohol 0.6 v/v %, 48 h, 28° C., untreated control = 100, mean ± SD, n = 4
# [10] = alcohol 1 v/v %, 48 h, 28° C., untreated control = 100, mean ± SD, n = 4
# [11] = alcohol 2 v/v %, 48 h, 28° C., untreated control = 100, mean ± SD, n = 4
# [12] = alcohol 4 v/v %, 48 h, 28° C., untreated control = 100, mean ± SD, n = 4
SMILES,Fungal Weight Relative Value (%) [1],Fungal Weight Relative Value (%) [2],Fungal Weight Relative Value (%) [4],"Fungal Weight Relative Value (%) [2, 8]","Fungal Weight Relative Value (%) [2, 9]","Fungal Weight Relative Value (%) [2, 10]","Fungal Weight Relative Value (%) [2, 11]","Fungal Weight Relative Value (%) [2, 12]",amount of aflatoxins produced [6],Total AF Relative Value (%) ([6]; alcohol 0.3 v/v %),Total AF Relative Value (%) ([6]; alcohol 0.6 v/v %),Total AF Relative Value (%) ([6]; alcohol 1 v/v %),Total AF Relative Value (%) ([6]; alcohol 2 v/v %),Total AF Relative Value (%) ([6]; alcohol 4 v/v %),also measured
CCC(C)O (stereo not drawn) [2-Butanol],56.2 ± 7.3% and 48.9 ± 8.7%,66.1 ± 5.4% and 70.2 ± 4.2%,,,,,,,,,,,,,Total AF Relative Value (%) [3]: 0.0 ± 0.0 %
CCCO [1-Propanol],104.5 ± 6.5% and 103.9 ± 8.8%,102.9 ± 12.0% and 118.1 ± 5.4%,87.4 ± 1.8% and 86.4 ± 2.8%,,,,,,,,,,,,Total AF Relative Value (%) [5]: 58.7 ± 9.5 % and 47.5 ± 6.5 %
CC(C)O [2-Propanol],,,,126.2 ± 6.4%,128.0 ± 11.6%,103.7 ± 7.7%,94.4 ± 8.3%,0.0 ± 0.0%,increase the amount of aflatoxins produced; also recorded: same tendencies as in the case of ethanol,,,,,,
CO [Methanol],123.6 ± 6.8% and 123.6 ± 10.4% and 112.8 ± 10.4% and 98.0 ± 4.6% and 101.4 ± 3.5%,,93.3 ± 11.2% and 92.0 ± 6.9% and 100.0 ± 8.5% and 102.1 ± 1.6% and 102.9 ± 3.7%,103.7 ± 3.5%,110.1 ± 6.7%,128.4 ± 3.0%,145.9 ± 11.4%,103.7 ± 3.5%,,70.6 ± 12.1 %,63.4 ± 12.7 %,0.0 ± 0.0 %,0.0 ± 0.0 %,0.0 ± 0.0 %,"Total AF Relative Value (%) ([5]; alcohol 0.3 v/v %, untreated control = 100, mean ± SD, n = 4): 86.3 ± 3.6 %; Total AF Relative Value (%) ([5]; alcohol 0.6 v/v %, untreated control = 100, mean ± SD, n = 4): 72.3 ± 1.9 %; Total AF Relative Value (%) ([5]; alcohol 1 v/v %, untreated control = 100, mean ± SD, n = 4): 31.1 ± 1.4 %; Total AF Relative Value (%) ([5]; alcohol 2 v/v %, untreated control = 100, mean ± SD, n = 4): 10.3 ± 1.3 %; Total AF Relative Value (%) ([5]; alcohol 4 v/v %, untreated control = 100, mean ± SD, n = 4): 3.4 ± 0.8 %; Total AF Relative Value (%) ([7]; alcohol 0.3 v/v %): 108.5 ± 5.8%; Total AF Relative Value (%) ([7]; alcohol 0.6 v/v %): 102.3 ± 5.0%; Total AF Relative Value (%) ([7]; alcohol 1 v/v %): 13.8 ± 0.8 %; Total AF Relative Value (%) ([7]; alcohol 2 v/v %): 0.0 ± 0.0 %; Total AF Relative Value (%) ([7]; alcohol 4 v/v %): 0.0 ± 0.0 %; Total AF Relative Value (%) ([3]; corn kernels sprayed with alcohol 20 μL per 1 g of kernels, 28° C., one week, positive control = 100, mean ± SD, n = 3): 1.0 ± 1.3 %"
CC(C)(C)O [2-Methyl-2-Propanol],,,,104.8 ± 7.9%,101.0 ± 4.8%,51.9 ± 15.5%,0.0 ± 0.0%,0.0 ± 0.0%,increase the amount of aflatoxins produced; also recorded: same tendencies as in the case of ethanol,,,,,,
CCO [Ethanol],,,,,,,,,increase the amount of aflatoxins produced; also recorded: conversely increased,197.1 ± 25.9 %,244.5 ± 13.2 %,222.4 ± 20.9 %,24.3 ± 10.5 %,0.0 ± 0.0 %,growth of A. flavus [2]: not inhibited; growth of A. flavus ([2]; concentration of 4 v/v % or higher): the growth of A. flavus was inhibited; aflatoxin production [6]: the aflatoxin production was accordingly inhibited
